# In PubChem BioAssay AID1259407 (Chemical Carcinogenesis Research Information System (CCRIS), 2018):
# The source made the active and inactive calls. The rule behind the calls is not given here.
# Tested on: CCRIS mutagenicity, Ames/micronucleus/aberration tests
# Assay: CCRIS mutagenicity studies
# [1] = Test System: AMES SALMONELLA TYPHIMURIUM, Strain/Indicator: TA100, Metabolic Activation: NONE, Method: PREINCUBATION
# [2] = Test System: AMES SALMONELLA TYPHIMURIUM, Strain/Indicator: TA1535, Metabolic Activation: NONE, Method: PREINCUBATION
# [3] = Test System: E. COLI, Strain/Indicator: WP2 UVRA, Metabolic Activation: NONE, Method: PREINCUBATION
# [4] = Test System: AMES SALMONELLA TYPHIMURIUM, Strain/Indicator: TA98, Metabolic Activation: NONE, Method: PREINCUBATION
smiles,measurement,setting,value
CCCCN(N=O)C(N)=O,mutagenic call,[1],active; positive
same,mutagenic call,"Test System: AMES SALMONELLA TYPHIMURIUM, Strain/Indicator: TA100, Metabolic Activation: RAT, LIVER, S-9, KC500 OR PHENOBARBITAL, Method: LIQUID SUSPENSION",active; positive
same,mutagenic call,[2],active; positive
same,mutagenic call,"Test System: AMES SALMONELLA TYPHIMURIUM, Strain/Indicator: TA1535, Metabolic Activation: NONE, Method: STANDARD PLATE",active; positive
same,mutagenic call,"Test System: CHINESE HAMSTER V-79, Strain/Indicator: V-79/6-THIOGUANINE, Metabolic Activation: NONE, Method: FLASK ASSAY",active; positive
same,mutagenic call,"Test System: CHO/HGPRT, Strain/Indicator: CHO-K1-BH4, Metabolic Activation: NONE, Method: STANDARD PLATE",active; positive
same,mutagenic call,"Test System: E. COLI B, Strain/Indicator: H/R30R, Metabolic Activation: NONE",active; positive
same,mutagenic call,"Test System: E. COLI B, Strain/Indicator: HS30R, Metabolic Activation: NONE",active; positive
same,mutagenic call,"Test System: E. COLI, Strain/Indicator: WP2, Metabolic Activation: NONE, Method: STANDARD PLATE",active; positive
same,mutagenic call,[3],active; positive
same,mutagenic call,"Test System: E. COLI, Strain/Indicator: WP2 UVRA, Metabolic Activation: NONE, Method: STANDARD PLATE",active; positive
same,mutagenic call,"Test System: E. COLI, Strain/Indicator: WP2 UVRA, Metabolic Activation: RAT, LIVER, S-9, PHENOBARBITAL AND 5,6-BENZOFLAVONE, Method: PREINCUBATION",active; positive
CC(=O)c1cc(NC(N)=O)ccc1OCC(O)CNC(C)(C)C (stereo unspecified),mutagenic call,[4],inactive; negative
same,mutagenic call,"Test System: AMES SALMONELLA TYPHIMURIUM, Strain/Indicator: TA98, Metabolic Activation: RAT, LIVER, S-9, AROCLOR 1254 (10 OR 50 µL/PLATE), Method: PREINCUBATION",inactive; negative
same,mutagenic call,[1],inactive; negative
same,mutagenic call,"Test System: AMES SALMONELLA TYPHIMURIUM, Strain/Indicator: TA100, Metabolic Activation: RAT, LIVER, S-9, AROCLOR 1254 (10 OR 50 µL/PLATE ), Method: PREINCUBATION",active; positive
same,mutagenic call,[2],inactive; negative
same,mutagenic call,"Test System: AMES SALMONELLA TYPHIMURIUM, Strain/Indicator: TA1535, Metabolic Activation: RAT, LIVER, S-9, AROCLOR 1254 (10 OR 50 µL/PLATE), Method: PREINCUBATION",active; positive
same,mutagenic call,"Test System: AMES SALMONELLA TYPHIMURIUM, Strain/Indicator: TA1537, Metabolic Activation: NONE, Method: PREINCUBATION",inactive; negative
same,mutagenic call,"Test System: AMES SALMONELLA TYPHIMURIUM, Strain/Indicator: TA1537, Metabolic Activation: RAT, LIVER, S-9, AROCLOR 1254 (10 OR 50 µL/PLATE), Method: PREINCUBATION",inactive; negative
same,mutagenic call,[3],inactive; negative
same,mutagenic call,"Test System: E. COLI, Strain/Indicator: WP2 UVRA, Metabolic Activation: RAT, LIVER, S-9, AROCLOR 1254 (10 OR 50 µL/PLATE), Method: PREINCUBATION",inactive; negative
O=C1NCCN1/N=C/c1ccc([N+](=O)[O-])o1,mutagenic call,"Test System: AMES SALMONELLA TYPHIMURIUM, Strain/Indicator: TA98, Metabolic Activation: NONE",active; positive
same,mutagenic call,"Test System: AMES SALMONELLA TYPHIMURIUM, Strain/Indicator: TA98, Metabolic Activation: S-9",inactive; negative
same,mutagenic call,"Test System: AMES SALMONELLA TYPHIMURIUM, Strain/Indicator: TA100, Metabolic Activation: NONE",active; positive
same,mutagenic call,"Test System: AMES SALMONELLA TYPHIMURIUM, Strain/Indicator: TA100, Metabolic Activation: S-9",active; positive
CCOP(=S)(OCC)OP(=S)(OCC)OCC,mutagenic call,"Test System: AMES SALMONELLA TYPHIMURIUM, Strain/Indicator: TA97, Metabolic Activation: HAMSTER, LIVER, S-9, AROCLOR 1254 (10%), Method: PREINCUBATION",inactive; negative
same,mutagenic call,"Test System: AMES SALMONELLA TYPHIMURIUM, Strain/Indicator: TA97, Metabolic Activation: NONE, Method: PREINCUBATION",inactive; negative
same,mutagenic call,"Test System: AMES SALMONELLA TYPHIMURIUM, Strain/Indicator: TA97, Metabolic Activation: RAT, LIVER, S-9, AROCLOR 1254 (10%), Method: PREINCUBATION",inactive; negative
same,mutagenic call,"Test System: AMES SALMONELLA TYPHIMURIUM, Strain/Indicator: TA98, Metabolic Activation: HAMSTER, LIVER, S-9, AROCLOR 1254 (10%), Method: PREINCUBATION",inactive; negative
same,mutagenic call,[4],inactive; negative
same,mutagenic call,"Test System: AMES SALMONELLA TYPHIMURIUM, Strain/Indicator: TA98, Metabolic Activation: RAT, LIVER, S-9, AROCLOR 1254 (10%), Method: PREINCUBATION",inactive; negative
same,mutagenic call,"Test System: AMES SALMONELLA TYPHIMURIUM, Strain/Indicator: TA100, Metabolic Activation: HAMSTER, LIVER, S-9, AROCLOR 1254 (10%), Method: PREINCUBATION",inactive; negative
same,mutagenic call,[1],inactive; negative
same,mutagenic call,"Test System: AMES SALMONELLA TYPHIMURIUM, Strain/Indicator: TA100, Metabolic Activation: RAT, LIVER, S-9, AROCLOR 1254 (10%), Method: PREINCUBATION",inactive; negative
same,mutagenic call,"Test System: AMES SALMONELLA TYPHIMURIUM, Strain/Indicator: TA1535, Metabolic Activation: HAMSTER, LIVER, S-9, AROCLOR 1254 (5, 10 OR 30%), Method: PREINCUBATION",active; positive
same,mutagenic call,[2],inactive; negative
same,mutagenic call,"Test System: AMES SALMONELLA TYPHIMURIUM, Strain/Indicator: TA1535, Metabolic Activation: RAT, LIVER, S-9, AROCLOR 1254 (10 OR 30%), Method: PREINCUBATION",inactive; negative
ClC(CBr)CBr,mutagenic call,"Test System: AMES SALMONELLA TYPHIMURIUM, Strain/Indicator: TA100, Metabolic Activation: RAT, LIVER, MICROSOMES, PHENOBARBITAL, NADPH COFACTORS, Method: STANDARD PLATE",active; positive
same,mutagenic call,"Test System: AMES SALMONELLA TYPHIMURIUM, Strain/Indicator: TA100, Metabolic Activation: RAT, LIVER, MICROSOMES, PHENOBARBITAL, Method: STANDARD PLATE",inactive; negative
O=[N+]([O-])c1ccc2ccc3cc4c(c5ccc1c2c35)C1OC1[C@@H](O)[C@@H]4O (stereo partly specified),mutagenic call,"Test System: CHINESE HAMSTER OVARY, Strain/Indicator: CHO-K1-BH4 (HGPRT)/6-THIOGUANINE, Metabolic Activation: NONE",active; positive
